Assay results from US20250026765A1, “SPIROHETEROCYCLE DERIVATIVE HAVING SEROTONIN RECEPTOR BINDING ACTIVITY” (Shionogi & Co., Ltd., priority 2021, published 2025).

molecular target: human recombinant 5-HT2C receptor (Homo sapiens (Human), UniProt P28335); test: 5-HT2C receptor binding inhibition test ([3H]-Mesulergine); conditions: Jump-In HEK cell membrane, 37° C. 2 hours, read-out: h-5-HT2C Ki
Procedure, shortened: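 Radioligand displacement on HEK membranes expressing human recombinant 5-HT2C (0.5 μg/well), [3H]-mesulergine near its Kd, in pH 7.4 Tris-HCl buffer with NaCl, MgCl2, KCl, CaCl2 and 0.1% BSA, 2 h at 37° C. Bound radioactivity measured after GF/B filtration; non-specific binding defined with 500 μmol/L serotonin, Ki from dose-response curve.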

human recombinant 5-HT2C receptor, sequence (P28335 33-458): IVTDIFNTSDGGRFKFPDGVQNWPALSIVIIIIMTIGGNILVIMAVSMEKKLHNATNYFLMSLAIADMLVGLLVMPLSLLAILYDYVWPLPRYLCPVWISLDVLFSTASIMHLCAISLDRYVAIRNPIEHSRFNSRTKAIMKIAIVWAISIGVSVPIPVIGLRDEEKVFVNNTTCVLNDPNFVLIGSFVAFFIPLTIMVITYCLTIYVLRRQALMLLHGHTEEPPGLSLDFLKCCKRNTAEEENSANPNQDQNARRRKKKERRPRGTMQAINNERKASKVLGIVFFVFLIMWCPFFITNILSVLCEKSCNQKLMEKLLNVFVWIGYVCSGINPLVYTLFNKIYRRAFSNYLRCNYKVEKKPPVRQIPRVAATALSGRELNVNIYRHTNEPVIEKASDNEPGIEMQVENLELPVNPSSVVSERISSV

Structure (SMILES)	Ki [nM]
CC(C)COc1ccc(CN(Cc2coc(CF)n2)C2=NOC3(CCN(C)CC3)N2)cc1 [Compound I-067]	< 10
CCCCOc1ccc(CN(Cc2coc(C)n2)C2=NOC3(CCN(C)CC3)N2)cc1 [Compound I-080]	< 10

same assay, conditions: Jump-In HEK cell membrane, 37° C. 2 hours, read-out: human serotonin 5-HT2C receptor binding activity Ki

Structure (SMILES)	Ki [nM]
CC(C)COc1ccc(CN(Cc2coc(CF)n2)C2=NOC3(CCN(C)CC3)N2)cc1 [Compound I-067]	0.95
CCCCOc1ccc(CN(Cc2coc(C)n2)C2=NOC3(CCN(C)CC3)N2)cc1 [Compound I-080]	0.579
Cc1nc(CN(Cc2ccc(OCC(C)C)cc2F)C2=NOC3(CCN(C)CC3)N2)co1 [Compound I-128]	0.374
CCCCOc1ccc(CN(Cc2cnn(C)n2)C2=NOC3(CCN(C)CC3)N2)cc1 [Compound I-113]	1.6

Second part, the molecule after the results:

Ki [nM]	Structure (SMILES)
1.13	CCCCOc1ccc(CN(Cc2coc(CF)n2)C2=NOC3(CCN(C)CC3)N2)cc1 [Compound I-105]
0.578	Cc1nc(CN(Cc2ccc(OCC(F)(F)C(F)(F)F)cc2F)C2=NOC3(CCN(C)CC3)N2)co1 [Compound I-104]
0.694	Cc1nc(CN(Cc2ccc(CCC(F)(F)F)cc2)C2=NOC3(CCN(C)CC3)N2)co1 [Compound I-125]
0.543	CCCCOc1ccc(CN(Cc2coc(C)n2)C2=NOC3(CCN(C)CC3)N2)c(F)c1 [Compound I-114]
0.469	CCCCOc1ccc(CN(Cc2coc(C)n2)C2=NOC3(CCN(C)CC3)N2)cc1F [Compound I-115]
